Where two headings read alike, the source gives them in different places.
Legend:
male mice SPF-ICR [1] = experiment: Acute toxicity test (1), intraperitoneal; settings: mouse, in vivo
Method: To male mice SPF-ICR five weeks old (supplied by Japan Charles River Co.) were intraperitoneally administered PQQ·2Na, PQQ trimethyl ester, PQQ triallyl ester, OPQ, 1-methylpropyl OPQ, 2-methylthioethyl OPQ and benzyl OPQ at dosages of 40, 80, 160 and 200 mg per kg of body weight of mouce, respectively and they were bred for 14 days at 25° C. One group consisted of 8 mice. For administration, PQQ·2Na and OPQ and esters thereof were dissolved in physiological saline and PQQ trimethyl ester and PQQ triallyl ester were suspended in 1% Tween 80-containing physiological saline, respectively.

[2] = Acute Toxicity Test (2), intraperitoneal; assay type: in vivo; settings: mouse, in vivo, ip
Method: (§1) To male mice SPF-ICR five weeks old (supplied by Japan Charles River Co.) were intraperitoneally administered PQQ triallyl ester at dosages of 40, 80, 160, 200, 400 and 800 mg per kg of body weight of mouse, respectively and they were bred for 14 days at 25° C. One group consisted of 8 mice. For administration, PQQ triallyl ester was suspended in 1% Tween 80-containing physiological saline.

male mice SPF-ICR [3] = experiment: Acute Toxicity Test (2), intraperitoneal; assay type: in vivo; settings: 8 mice per group, 14 days
Method: as §1

mice [4] = settings: mouse, in vivo, ip
Method: One group consisted of 8 mice. For administration, PQQ·2Na and OPQ and esters thereof were dissolved in physiological saline and PQQ trimethyl ester and PQQ triallyl ester were suspended in 1% Tween 80-containing physiological saline, respectively.
PQQ·2Na, PQQ trimethyl ester, PQQ triallyl ester and OPQ and esters thereof were intraperitoneally administered to mice and they were bred in the same manner as in the above acute toxicity test. Urine of the mice was taken every day and glucose concentration was measured using clinical examination reagent (trademark: […] 2 manufactured by Miles.Sankyo Co.).

mice [5] = experiment: Kidney Toxicity Determined by Blood Examination (1); assay type: in vivo
Method: After lapse of one day from the administration, the mice were fasted (with feeding only water) and then after 18 hours, blood was collected and serum was obtained therefrom. Glucose, urea nitrogen and creatinine in the serum were examined by clinical examination reagent (trademark: FUJI DRYCHEMSLIDE manufactured by Fuji Photo Film Co., Ltd.).

[6] = Superoxide scavenging activity (hypoxanthine-xanthine oxidase, DMPO spin trapping, ESR); assay type: biochemical; settings: Example 1, Table 6; pH 7.3; read-out: O2^- scavenging activity IC50
Excerpt: Activity of PQQ esters to scavenge superoxide (O2^-) produced in the system of hypoxanthinexanthine oxidase was examined by spin trapping method [using 5,5-dimethyl-l-pyrroline-N-oxide (hereinafter referred to as "DMPO") as a spin trapping agent] where electron spin resonance (hereinafter referred to as "ESR") was used.
Hypoxanthine+2O2 →2O2^- +uric acid (xanthine oxidase)
The following reagents were successively put in a test tube and stirred after addition of the hypoxanthine 7 to initiate the reaction and the reaction mixture was transferred to a quartz cell used for measurement of ESR.
Superoxide scavenging activity of OPQ and esters thereof was examined in the same manner as in Example 1.

[7] = Hydroxy radical scavenging activity (H2O2-(Fe^2+-DTPA), DMPO spin trapping, ESR); assay type: biochemical; settings: Example 3, Table 8; pH 7.3; read-out: .OH scavenging activity IC50
Excerpt: Activity of PQQ esters to scavenge hydroxy radical (·OH) produced in the system of H2 O2 --(Fe^2+ -DTPA) was examined by spin trapping method [using 5,5-dimethyl-1-pyrroline-N-oxide (hereinafter referred to as "DMPO") as a spin trapping agent] where electron spin resonance (hereinafter referred to as "ESR") was used. DTPA means diethylenetriamine-pentaacetic acid.
H2 O2 +Fe^2 -DTPA complex→·OH+OH^-
The following reagents were successively put in a test tube and stirred after addition of H2 O2 6 to initiate the reaction and the reaction mixture was transferred to a quartz cell used for measurement of ESR.
Hydroxy radical scavenging activity of OPQ and esters thereof was examined in the same manner as in Example 3.

[8] = system: Hydrocortisone-Induced Cataract of Hen's Eggs; experiment: Effect on hydrocortisone-induced cataract of hen's eggs; assay type: in vivo, white leghorn (hen's eggs); settings: 1 μmole at 3, 10 and 20 h after hydrocortisone; lens at 48 h
Method: Fertilized eggs of white leghorn were incubated in an incubator at a temperature of 37° C. and 70% in humidity. The day on which the incubation was started was taken to be one day old. […] eggs of 15 day old were prepared and divided into 7 groups, each of which included 5 eggs (A-G). A small hole was bored through the eggshell above air chamber of the eggs of groups B-G and 0.25 μmole (as 0.2 ml solution) of hydrocortisone sodium succinate was administered into the air chamber through the hole and then, the hole was sealed with a cellophane tape. To The eggs of groups C-G was administered 1 μmole of following compounds after 3, 10 and 20 hours from administration of hydrocortisone sodium succinate. That is, 0.2 ml of a solution of PQQ·2Na in distilled water was administered to the eggs of group C, 0.2 ml of a suspension of PQQ trimethyl ester in 1% Tween 80 solution was administered to the eggs of group D, 0.2 ml of a suspension of triallyl ester in 1% Tween 80 solution was administered to the eggs of group E, 0.2 ml of a solution of OPQ in 10 mM NaCO3 solution was administered to the eggs of group F, and 0.2 ml of a solution of methyl OPQ in 10 mM NaCO3 solution was administered to the eggs of group G.
Crystal lens was taken out after 48 hours from administration of hydrocortisone sodium succinate and degree of cataract was judged by the criteria according to the Nishigori et al method (Nishigori et al, "Investigative Ophthalmology & Visual Science", Vol. 25, page 1051, 1984).
5 The whole nucleus was hazed in white.

[9] = not told; for Membrane permeation constant: bovine, 960 min
Method: Permeability of various compounds through capsule of crystal bovine lens was examined in accordance with the method mentioned in "Crystal Lens and Biochemical Mechanism thereof" (pages 436-440) edited by Shuzo Iwata (Medical Aoi Publisher). Each compound dissolved in 10 mM HEPES buffer (containing 1% DMSO in the case of PQQ triesters) was put in an apparatus for measurement of membrane permeation constant and left to stand for 16 hours at 35° C. and then amount of the compound which migrated was measured by ultraviolet absorption (243 nm for PQQ·2Na and 255 nm for PQQ esters) to obtain membrane permeation constant.

mice [10] = experiment: Kidney Toxicity Determined by Blood Examination (2); assay type: in vivo; settings: for Creatinine / Glucose / Urea nitrogen: mouse serum
Method: Dosages were 150, 400 and 1000 mg per kg of body weight of mouse.
After lapse of one day from the administration, the mice were fasted (with feeding only water) and then after 15 hours, blood was collected and serum was obtained therefrom. Glucose, urea nitrogen and creatinine in the serum were examined by clinical examination reagent (trademark: FUJI DRYCHEMSLIDE manufactured by Fuji Photo Film Co., Ltd.).

In the case of `C=CCOC(=O)c1cc(C(=O)OCC=C)c2c(n1)C(=O)C(=O)c1cc(C(=O)OCC=C)[nH]c1-2` [PQQ triallyl ester], the mice died (male mice SPF-ICR [1]) is reported as “no mice died”, the LD50 at 336 h [2] is reported as about 500 mg/kg and the mice died (male mice SPF-ICR [3]; i.p. 200 mg/kg or less) is reported as “No mice died”. The mice died (male mice SPF-ICR [3]; i.p. 400 mg/kg) was “three mice died”, the mice died (male mice SPF-ICR [3]; i.p. 800 mg/kg) was “eight mice all died” and the glucose in urine (mice [4]; 20 mg/kg) was “-”. For the same molecule, the glucose in urine (mice [4]; 40 mg/kg) was “-”, the glucose in urine (mice [4]; 80 mg/kg) was “-” and the glucose in urine (mice [4]; 160 mg/kg) was “-”. For the same molecule, the glucose in urine (mice [4]; 200 mg/kg) was “-”, the glucose in urine (mice [4]; 400 mg/kg) was “-” and the glucose in urine (mice [4]; 1000 mg/kg) was “-”. For the same molecule, the “contents of glucose, urea nitrogen and creatinine in serum” value (mice [5]; mice, summary of Table 3) was “nearly the same as those in the case of administration of no compounds”, the Creatinine (mice [5]; mouse serum, 40 mg/kg) was 0.3 ± 0.1 mg/dL and the Glucose (mice [5]; mouse serum, 40 mg/kg) was 42 ± 6 mg/dL. The Urea nitrogen (mice [5]; mouse serum, 40 mg/kg) was 11 ± 4 mg/dL, the Creatinine (mice [5]; mouse serum, 90 mg/kg) was 0.2 ± 0.1 mg/dL and the Glucose (mice [5]; mouse serum, 90 mg/kg) was 47 ± 15 mg/dL. It also gave a Urea nitrogen (mice [5]; mouse serum, 90 mg/kg) of 12 ± 3 mg/dL, a Creatinine (mice [5]; mouse serum, 160 mg/kg) of 0.1 ± 0.1 mg/dL and a Glucose (mice [5]; mouse serum, 160 mg/kg) of 59 ± 16 mg/dL. For the same molecule, the Urea nitrogen (mice [5]; mouse serum, 160 mg/kg) was 10 ± 1 mg/dL, the Creatinine (mice [5]; mouse serum, 200 mg/kg) was 0.1 ± 0.1 mg/dL and the Glucose (mice [5]; mouse serum, 200 mg/kg) was 76 ± 6 mg/dL. The Urea nitrogen (mice [5]; mouse serum, 200 mg/kg) was 9 ± 1 mg/dL, the “kidney toxicity” value (mice [5]; mouse, in vivo) was “kidney toxicity was not seen” and the IC50 [6] was 12.4 nM. The IC50 [7] was 42000 nM, the “Judgement 1 (No haze was seen in crystal lens), eggs” value [8] was 2/5 and the “Judgement 2 (Slight opaque ring was seen in crystal lens), eggs” value [8] was 1/5. For the same molecule, the “Judgement 3 (Clear ring of white haze was seen in crystal lens), eggs” value [8] was 1/5, the “Judgement 4 ~ 5 (white haze of pinhole size in nucleus ~ whole nucleus hazed in white), eggs” value [8] was 1/5 and the Membrane permeation constant [9] was 2.42 ± 0.60 10 ^-7 cm^2 · sec^-1.
In the case of `COC(=O)c1cc(C(=O)OC)c2c(n1)C(=O)C(=O)c1cc(C(=O)OC)[nH]c1-2` [PQQ trimethyl ester], the mice died (male mice SPF-ICR [1]) is reported as “no mice died”, the “glucose detected in urine” value (mice [4]) is reported as “no glucose was detected in urine” and the glucose in urine (mice [4]; 20 mg/kg) is reported as “-”. The glucose in urine (mice [4]; 40 mg/kg) was “-”, the glucose in urine (mice [4]; 80 mg/kg) was “-” and the glucose in urine (mice [4]; 160 mg/kg) was “-”. The glucose in urine (mice [4]; 200 mg/kg) was “-”, the glucose in urine (mice [4]; 400 mg/kg) was “-” and the glucose in urine (mice [4]; 1000 mg/kg) was “-”. The Creatinine (mice [10]; 150 mg/kg) was 0.85 ± 0.08 mg/dL, the Glucose (mice [10]; 150 mg/kg) was 154 ± 23 mg/dL and the Urea nitrogen (mice [10]; 150 mg/kg) was 23 ± 2 mg/dL. For the same molecule, the Creatinine (mice [10]; 400 mg/kg) was 0.73 ± 0.05 mg/dL, the Glucose (mice [10]; 400 mg/kg) was 117 ± 21 mg/dL and the Urea nitrogen (mice [10]; 400 mg/kg) was 20 ± 2 mg/dL. For the same molecule, the Creatinine (mice [10]; 1000 mg/kg) was 0.73 ± 0.05 mg/dL, the Glucose (mice [10]; 1000 mg/kg) was 125 ± 17 mg/dL and the Urea nitrogen (mice [10]; 1000 mg/kg) was 17 ± 4 mg/dL. The “kidney toxicity” value (mice [10]; mouse, in vivo, 1000 mg/kg) was “No kidney toxicity was recognized”, the IC50 [6] was 18.5 nM and the “Judgement 1 (No haze was seen in crystal lens), eggs” value [8] was 1/5. The “Judgement 3 (Clear ring of white haze was seen in crystal lens), eggs” value [8] was 1/5, the “Judgement 4 ~ 5 (white haze of pinhole size in nucleus ~ whole nucleus hazed in white), eggs” value [8] was 3/5 and the Membrane permeation constant [9] was 1.41 ± 0.48 10 ^-7 cm^2 · sec^-1. For the same molecule, the “membrane permeation constant relative to that of PQQ.2Na” value [9] was “about twice”.
For `O=C(O)c1cc(C(=O)O)c2c(n1)C(=O)C(=O)c1cc(C(=O)O)[nH]c1-2` [PQQ.2Na, reference compound], the mice died (male mice SPF-ICR [1]; ip, 40 mg/kg) was “No mice died”, the mice died (male mice SPF-ICR [1]; ip, 80 mg/kg) was “five mice died” and the mice died (male mice SPF-ICR [1]; ip, 160 mg/kg) was “eight mice all died”. For the same molecule, the mice died (male mice SPF-ICR [1]; ip, 200 mg/kg) was “eight mice all died”, the “glucose detected in urine” value (mice [4]) was “glucose was detected in urine” and the glucose in urine (mice [4]; 20 mg/kg) was “-”. The glucose in urine (mice [4]; 40 mg/kg) was “-”, the glucose in urine (mice [4]; 80 mg/kg) was “-” and the “contents of glucose, urea nitrogen and creatinine in serum” value (mice [5]; mouse, in vivo) was “Sharp reduction of glucose and much increase of urea nitrogen and creatinine”. For the same molecule, the “kidney toxicity” value (mice [5]; mouse, in vivo) was “kidney toxicity was recognized”, the Creatinine (mice [5]; mouse, in vivo, 20 mg/kg) was 0.8 ± 0.1 mg/dL and the Glucose (mice [5]; mouse, in vivo, 20 mg/kg) was 70 ± 13 mg/dL. It also gave a Urea nitrogen (mice [5]; mouse, in vivo, 20 mg/kg) of 25 ± 3 mg/dL, a Creatinine (mice [5]; mouse, in vivo, 40 mg/kg) of 2.3 ± 1.0 mg/dL and a Glucose (mice [5]; mouse, in vivo, 40 mg/kg) of 60 ± 12 mg/dL. It also gave a Urea nitrogen (mice [5]; mouse, in vivo, 40 mg/kg) of 110 ± 38 mg/dL, a Creatinine (mice [5]; mouse, in vivo, 80 mg/kg) of 3.4 ± 0.4 mg/dL and a Glucose (mice [5]; mouse, in vivo, 80 mg/kg) of 57 ± 15 mg/dL. The Urea nitrogen (mice [5]; mouse, in vivo, 80 mg/kg) was 130 ± 18 mg/dL, the Creatinine (mice [5]; mouse, in vivo, 160 mg/kg) was 4.1 ± 0.2 mg/dL and the Glucose (mice [5]; mouse, in vivo, 160 mg/kg) was 35 ± 7 mg/dL. For the same molecule, the Urea nitrogen (mice [5]; mouse, in vivo, 160 mg/kg) was 139 ± 3 mg/dL, the IC50 [6] was 38.3 nM and the IC50 [7] was 64000 nM. The “Judgement 1 (No haze was seen in crystal lens), eggs” value [8] was 1/5, the “Judgement 2 (Slight opaque ring was seen in crystal lens), eggs” value [8] was 2/5 and the “Judgement 4 ~ 5 (white haze of pinhole size in nucleus ~ whole nucleus hazed in white), eggs” value [8] was 2/5. The Membrane permeation constant [9] was 0.68 ± 0.36 10 ^-7 cm^2 · sec^-1.

From patent publication US5369112A, “Method of treating cataracts caused by active oxygen” (Mitsubishi Gas Chemical Company, Inc., priority 1991, dated 1994)
